Source: patent US10463644B2, “Uses of sesquiterpene lactone compounds and their derivatives in drugs preparation” (ACCENDATECH, priority 2013, dated 2019)
Where two headings read alike, the source gives them in different places.

Legend:
[1] = test system: IL-1β secreted by synoviocyte; assay: Content of IL-1β in culture supernatant of synoviocyte of RA model rats given test compound; assay type: in vivo; conditions: rat RA model, dose 30 mg/kg.2d; normal control 0.16 ± 0.034, NaCl 0.49 ± 0.136
Outline: (§1)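 Animals with induced RA are grouped and dosed with compound (30 mg/kg.2d) alongside NaCl and normal controls. Synoviocytes are prepared and cultured, and supernatants are harvested. TNF-α and PGE2 secretion are then quantified by one procedure, IL-1β by another.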

normal cells = assay: Survival rate of normal cells after test compound is added (flow cytometry, Annexin V-FITC/PI); assay type: cell-based; conditions: 18 h
Outline: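 Patient specimens (e.g. AML, CD34+/CD38+ stem-cell marker) separated on Ficoll; mononuclear cells at 1×10^6/mL in serum-free IMDM treated 18 h with compound. Cells stained for stem-cell markers, then Annexin V-FITC/PI, and apoptosis measured by flow cytometry within one hour.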

[2] = test system: PGE2 secreted by synoviocyte; assay: Content of PGE2 in culture supernatant of synoviocyte of RA model rats given test compound; assay type: in vivo; conditions: rat RA model, dose 30 mg/kg.2d; normal control 8.34 ± 1.29, NaCl 32.44 ± 10.32
Outline: as §1

cancer stem cells = assay: Survival rate of cancer stem cells after test compound is added (flow cytometry, Annexin V-FITC/PI, clinical specimen); assay type: cell-based, patient; conditions: Homo sapiens, 18 h
Outline: (§2)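 Patient tumour or leukaemia cells, identified by cancer-specific stem-cell markers (CD34+/CD38+ for AML), are treated with compound for 18 hours in serum-free IMDM. Apoptosis is then measured as Annexin V-FITC/PI staining by flow cytometry.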

cancer cells = assay: Survival rate of cancer cells after test compound is added (flow cytometry, Annexin V-FITC/PI, clinical specimen); assay type: cell-based, patient; conditions: Homo sapiens, 18 h, read-out: Survival rate (%) All cells (Stem cells and ordinary cells)
Outline: as §2

[3] = read-out: Survival rate (%) All cells (Stem cells and ordinary cells)
[4] = read-out: Survival rate (%) Stem cells
[5] = Head and neck squamous cell carcinomas

**Q.** Which results are given for `C=C1C(=O)O[C@H]2[C@H]1CC[C@@](C)(OC)C1CC[C@@](C)(O)[C@@H]12` (stereo partly drawn) [Compound 47]?
**A.** Content of IL-1β in culture supernatant of synoviocyte (x ± s) [1]: 0.34 ± 0.058 ng/mL; viability at 10 µM (normal cells; [3]): 95%; viability at 10 µM (normal cells; [4]): 93%; viability at 20 µM (normal cells; [3]): 94%; viability at 20 µM (normal cells; [4]): 92%; Content of PGE2 in culture supernatant of synoviocyte (x ± s) [2]: 27.95 ± 3.67 ng/mL; viability at 10 µM (cancer stem cells; AML): 79%; viability at 20 µM (cancer stem cells; AML): 73%; viability at 10 µM (cancer stem cells; Brain glioma): 85%; viability at 20 µM (cancer stem cells; Brain glioma): 79%; viability at 10 µM (cancer stem cells; Brain tumor): 81%; viability at 20 µM (cancer stem cells; Brain tumor): 75%; viability at 10 µM (cancer stem cells; Breast cancer): 82%; viability at 20 µM (cancer stem cells; Breast cancer): 73%; viability at 10 µM (cancer stem cells; CLL): 82%; viability at 20 µM (cancer stem cells; CLL): 73%; viability at 10 µM (cancer stem cells; CML): 85%; viability at 20 µM (cancer stem cells; CML): 77%; viability at 10 µM (cancer stem cells; Children hepatoblastoma): 85%; viability at 20 µM (cancer stem cells; Children hepatoblastoma): 79%; viability at 10 µM (cancer stem cells; Colon adenocarcinoma): 88%; viability at 20 µM (cancer stem cells; Colon adenocarcinoma): 81%; viability at 10 µM (cancer stem cells; Colorectal cancer): 79%; viability at 20 µM (cancer stem cells; Colorectal cancer): 72%; viability at 10 µM (cancer stem cells; Gastric cancer): 82%; viability at 20 µM (cancer stem cells; Gastric cancer): 76%; viability at 10 µM (cancer stem cells; Gastrointestinal tumor): 78%; viability at 20 µM (cancer stem cells; Gastrointestinal tumor): 74%; viability at 10 µM (cancer stem cells; Glioma): 87%; viability at 20 µM (cancer stem cells; Glioma): 76%; viability at 10 µM (cancer stem cells; [5]): 86%; viability at 20 µM (cancer stem cells; [5]): 78%; viability at 10 µM (cancer stem cells; Laryngeal cancer): 85%; viability at 20 µM (cancer stem cells; Laryngeal cancer): 79%; viability at 10 µM (cancer stem cells; Liver cancer): 82%; viability at 20 µM (cancer stem cells; Liver cancer): 73%; viability at 10 µM (cancer stem cells; Lung adenocarcinoma): 85%; viability at 20 µM (cancer stem cells; Lung adenocarcinoma): 77%; viability at 10 µM (cancer stem cells; Lung cancer): 85%; viability at 20 µM (cancer stem cells; Lung cancer): 79%; viability at 10 µM (cancer stem cells; Malignant melanoma): 82%; viability at 20 µM (cancer stem cells; Malignant melanoma): 76%; viability at 10 µM (cancer stem cells; Nasopharynx cancer): 82%; viability at 20 µM (cancer stem cells; Nasopharynx cancer): 74%; viability at 10 µM (cancer stem cells; Ovarian cancer): 84%; viability at 20 µM (cancer stem cells; Ovarian cancer): 78%; viability at 10 µM (cancer stem cells; Pancreatic cancer): 84%; viability at 20 µM (cancer stem cells; Pancreatic cancer): 78%; viability at 10 µM (cancer stem cells; Prostate cancer): 85%; viability at 20 µM (cancer stem cells; Prostate cancer): 77%; viability at 10 µM (cancer stem cells; Retinoblastoma): 81%; viability at 20 µM (cancer stem cells; Retinoblastoma): 75%; viability at 10 µM (cancer stem cells; Skin cancer): 84%; viability at 20 µM (cancer stem cells; Skin cancer): 78%; viability at 10 µM (cancer cells; AML): 88%; viability at 20 µM (cancer cells; AML): 82%; viability at 10 µM (cancer cells; Brain glioma): 93%; viability at 20 µM (cancer cells; Brain glioma): 86%; viability at 10 µM (cancer cells; Brain tumor): 87%; viability at 20 µM (cancer cells; Brain tumor): 83%; viability at 10 µM (cancer cells; Breast cancer): 91%; viability at 20 µM (cancer cells; Breast cancer): 87%; viability at 10 µM (cancer cells; CLL): 91%; viability at 20 µM (cancer cells; CLL): 87%; viability at 10 µM (cancer cells; CML): 92%; viability at 20 µM (cancer cells; CML): 89%; viability at 10 µM (cancer cells; Children hepatoblastoma): 88%; viability at 20 µM (cancer cells; Children hepatoblastoma): 85%; viability at 10 µM (cancer cells; Colon adenocarcinoma): 91%; viability at 20 µM (cancer cells; Colon adenocarcinoma): 89%; viability at 10 µM (cancer cells; Colorectal cancer): 88%; viability at 20 µM (cancer cells; Colorectal cancer): 81%; viability at 10 µM (cancer cells; Gastric cancer): 88%; viability at 20 µM (cancer cells; Gastric cancer): 89%; viability at 10 µM (cancer cells; Gastrointestinal tumor): 89%; viability at 20 µM (cancer cells; Gastrointestinal tumor): 81%; viability at 10 µM (cancer cells; Glioma): 94%; viability at 20 µM (cancer cells; Glioma): 87%; viability at 10 µM (cancer cells; [5]): 93%; viability at 20 µM (cancer cells; [5]): 92%; viability at 10 µM (cancer cells; Laryngeal cancer): 93%; viability at 20 µM (cancer cells; Laryngeal cancer): 86%; viability at 10 µM (cancer cells; Liver cancer): 91%; viability at 20 µM (cancer cells; Liver cancer): 87%; viability at 10 µM (cancer cells; Lung adenocarcinoma): 92%; viability at 20 µM (cancer cells; Lung adenocarcinoma): 89%; viability at 10 µM (cancer cells; Lung cancer): 93%; viability at 20 µM (cancer cells; Lung cancer): 86%; viability at 10 µM (cancer cells; Malignant melanoma): 89%; viability at 20 µM (cancer cells; Malignant melanoma): 86%; viability at 10 µM (cancer cells; Nasopharynx cancer): 88%; viability at 20 µM (cancer cells; Nasopharynx cancer): 85%; viability at 10 µM (cancer cells; Ovarian cancer): 91%; viability at 20 µM (cancer cells; Ovarian cancer): 88%; viability at 10 µM (cancer cells; Pancreatic cancer): 91%; viability at 20 µM (cancer cells; Pancreatic cancer): 88%; viability at 10 µM (cancer cells; Prostate cancer): 92%; viability at 20 µM (cancer cells; Prostate cancer): 89%; viability at 10 µM (cancer cells; Retinoblastoma): 87%; viability at 20 µM (cancer cells; Retinoblastoma): 83%; viability at 10 µM (cancer cells; Skin cancer): 91%; viability at 20 µM (cancer cells; Skin cancer): 88%
